# Assay results: the OligoGym collection
# “And” between values parts separate entries of the source, which are not always exact repeats. Equal entries are not always repeated. After the bases stand the sugars from the 5' end (letter, count) and the backbone: PS all phosphorothioate, else s phosphorothioate and o phosphodiester by linkage. Methylation of C is not given here. e = 2'-O-(2-methoxyethyl) (MOE); k = constrained ethyl (cEt); d = 2'-deoxy (DNA)
# Biological target: IRF4
# Conditions: ASO, MM.1R, 0.0625 µM
row,Sequence,target mRNA inhibition [%]
1,"ACACTTTTAGAGAGGA (sugars k3 d10 k3, PS)",32

# Same assay, conditions: ASO, MM.1R, 0.222 µM
row,Sequence,target mRNA inhibition
1,"ACACTTTTAGAGAGGA (sugars k3 d10 k3, PS)",25% and 41%

# Same assay, conditions: ASO, MM.1R, 0.25 µM
row,Sequence,target mRNA inhibition [%]
1,"ACACTTTTAGAGAGGA (sugars k3 d10 k3, PS)",41

# Same assay, conditions: ASO, MM.1R, 1 µM
row,Sequence,target mRNA inhibition
1,"ACACGCCCGACCCTCC (sugars k3 d10 k3, PS)",4%
2,"ACACTTTTAGAGAGGA (sugars kkdddddddddkdkdk, PS)",3%
3,"ACACTTTTAGAGAGGA (sugars kkdddddddddkekek, PS)",27%
4,"ACAGAGACGCGGTGAG (sugars k3 d10 k3, PS)",14%
5,"ACAGTGACTTGCATCC (sugars k2 d9 e3 k2, PS)",27%
6,"ACAGTGACTTGCATCC (sugars k3 d10 k3, PS)",34%
7,"ACAGTGACTTGCATCC (sugars kddddddddddkekek, PS)",-5%
8,"ACAGTGACTTGCATCC (sugars kdddddddddkekeke, PS)",6%
9,"ACCAAAAGTACCACAG (sugars k3 d10 k3, PS)",-8%
10,"ACCGCATTGCTAGATT (sugars k3 d10 k3, PS)",27%
11,"ACCTAACTAAATGTCA (sugars k3 d10 k3, PS)",-24%
12,"ACCTTCGCGGCCGGCC (sugars k3 d10 k3, PS)",-42%
13,"ACGAAGGGCAGTGCCT (sugars k3 d10 k3, PS)",-5%
14,"ACGGAAGTTTACACTG (sugars kddddddddddkekek, PS)",7%
15,"ACGGAAGTTTACACTG (sugars kkdddddddddkekek, PS)",21%
16,"ACGGAGGCGGCAGACG (sugars k3 d10 k3, PS)",-9%
17,"ACGTGTGCTTGCCAAG (sugars kdddddddddkekeke, PS)",40% and 35%

# Same assay, conditions: ASO, MM.1R, 2 µM
row,Sequence,target mRNA inhibition
1,"ACACTTTTAGAGAGGA (sugars k3 d10 k3, PS)",72% and 89%

# Same assay, conditions: ASO, MM.1R, 4 µM
row,Sequence,target mRNA inhibition [%]
1,"ACACTTTTAGAGAGGA (sugars k3 d10 k3, PS)",74

# Same assay, conditions: ASO, SK-MEL-28, 4 µM
row,Sequence,target mRNA inhibition [%]
1,"ACACACATTAAAGGGT (sugars k3 d10 k3, PS)",43
2,"ACACACATTTGAGAGC (sugars k3 d10 k3, PS)",66
3,"ACACAGTCTGCTGCCC (sugars k3 d10 k3, PS)",51
4,"ACACATCACTTGGTCA (sugars k3 d10 k3, PS)",78
5,"ACACTGGATCTGAATT (sugars k3 d10 k3, PS)",46
6,"ACACTTTTAGAGAGGA (sugars k3 d10 k3, PS)",63
7,"ACAGAAGATCTCTACT (sugars k3 d10 k3, PS)",32
8,"ACAGATAACGAGGTGC (sugars k3 d10 k3, PS)",30
9,"ACAGATAGTTAAGTAC (sugars k3 d10 k3, PS)",35
10,"ACAGCATAGCATTATC (sugars k3 d10 k3, PS)",64
11,"ACAGGACCTGGTCCAG (sugars k3 d10 k3, PS)",35
12,"ACAGGGTGCTCCTGAG (sugars k3 d10 k3, PS)",23
13,"ACATATCCATGTTGCA (sugars k3 d10 k3, PS)",79
14,"ACATGGCAGTGGAGCT (sugars k3 d10 k3, PS)",64
15,"ACATTACTGAGATATC (sugars k3 d10 k3, PS)",16
16,"ACCAGAACTAATGTCC (sugars k3 d10 k3, PS)",32
17,"ACCCACACAAGTCTTA (sugars k3 d10 k3, PS)",-4
18,"ACCCACGGACGGAGGC (sugars k3 d10 k3, PS)",-9
19,"ACCTACAAGCAGTCAT (sugars k3 d10 k3, PS)",46
20,"ACCTGCTGGCAGTTCT (sugars k3 d10 k3, PS)",61
21,"ACCTTTTTTGGCTCCC (sugars k4 d8 k4, PS)",19
22,"ACGACAGCATAGCATT (sugars k3 d10 k3, PS)",67
23,"ACGCAAGTCTGAATTT (sugars k3 d10 k3, PS)",65
24,"ACGCACACACAAGTGG (sugars k3 d10 k3, PS)",59
